Data on 65 compounds can be found in PubChem BioAssay AID2005 (Sanford-Burnham Center for Chemical Genomics, 2009).

The structures appear in SMILES notation. The source made the active and inactive calls.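 The calls were made as follows: active = plate Z score at or below -3, or inhibition of at least 30% at 20 µM; inactive = the rest.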

A short description of this experiment: EGFP reporter destabilization counter-screen – F442A EGFP cells, fluorescence, counter-screen for p/CIP destabilizer project, dose response (AID 2005).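 Also: cells express EGFP alone from a CMV promoter as a counter screen for p/CIP-EGFP.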 The following applies: F442A EGFP cells, EGFP fluorescence, 16 h, stronger effect = higher value. Background: Counterscreens check selectivity or assay interference.

In general, inhibition refers to the change of the read-out against control, counted positive when it falls. As to `O=C(Nc1ccc(N2CCOCC2)c(Cl)c1)c1ccc(-n2cnnc2)cc1`, the inhibition runs as follows: (EGFP decrease, at 10 µM) 15.2%; (at 20 µM) 4.8% (inactive).

Regarding `Cc1nn(CC(=O)NCCN2CCCCC2C)c(=O)c2cc(-c3ccccc3)nn12` (stereo not given), the inhibition reads like this: (EGFP decrease, at 10 µM) 17.6%; (at 20 µM) 1.6% (inactive).

Consider `COC(=O)c1ccc(-c2ccc(CNCC(O)c3ccccc3)o2)cc1` (stereo not given), for which the inhibition is 8.8% (EGFP decrease, at 10 µM) and 7.1% (inactive) (at 20 µM).

Consider `N#Cc1cc(F)c(N2CCNCC2)cc1Cl`, for which the inhibition (EGFP decrease, at 10 µM) stood at 13.5% and the inhibition (at 20 µM) was 6.7% (inactive).

As to `CCOC(=O)CSC1=Nc2ccccc2C2=NC(CC(=O)NCc3ccc4c(c3)OCO4)C(=O)N12` (stereo not given), the inhibition runs as follows: (EGFP decrease, at 10 µM) -26.1%; (at 20 µM) 3.9% (inactive).

Regarding `COc1ccc(N2CCN(C(=O)c3cn(C)c(=O)c4c3c3ccccc3n4C)CC2)cc1`, the inhibition (EGFP decrease, at 10 µM) worked out at 6.2% and the inhibition (at 20 µM) is 20.1% (inactive).

On to `CCCCC(=O)NC(c1ccccc1Cl)c1ccc2cccnc2c1O` (stereo not given), for which the inhibition is 3.1% (EGFP decrease, at 10 µM) and -6.1% (inactive) (at 20 µM).

On to `CCc1cc2c(=O)c(-c3cscn3)coc2cc1O`, for which the inhibition (EGFP decrease, at 10 µM) was -1.7% and the inhibition (at 20 µM) is -28% (inactive).

Consider `COc1ccc(S(=O)(=O)Nc2cccc(-n3cnnn3)c2)cc1OC`, for which the inhibition reads like this: (EGFP decrease, at 10 µM) 6.4%; (at 20 µM) 6.9% (inactive).

Consider `CN(c1ccc(C(=O)Nc2ccccn2)cc1)S(=O)(=O)c1ccccc1`, for which the inhibition is, setting by setting: (EGFP decrease, at 10 µM) 11.8%; (at 20 µM) 9% (inactive).

Regarding `CCCC(=O)c1c[nH]c(C(=O)NCCc2ccccn2)c1`, the inhibition (EGFP decrease, at 10 µM) amounted to 20.5% and the inhibition (at 20 µM) was 29.1% (inactive).

Regarding `COc1ccc(CNC(=O)C(C)Cc2ccccc2)cc1O` (stereo not given), the inhibition runs as follows: (EGFP decrease, at 10 µM) 24.1%; (at 20 µM) 14.7% (inactive).

For the compound `COc1ccccc1NC(=S)NNC(=O)c1ccc(Cl)cc1Cl`, the inhibition was -23.9% (EGFP decrease, at 10 µM) and 2% (inactive) (at 20 µM).

Regarding `Fc1ccc(CNCCc2ccccc2)cc1`, the inhibition was 21.5% (EGFP decrease, at 10 µM) and -9.1% (inactive) (at 20 µM).

For the compound `O[C@@H](CNC[C@H](O)c1ccccc1)c1ccccc1`, the inhibition (EGFP decrease, at 10 µM) amounted to 28% and the inhibition (at 20 µM) was -10.9% (inactive).

In the case of `CC(C)(C)n1nc2c(c1NC(=O)c1cc(Cl)ccc1[N+](=O)[O-])CS(=O)(=O)C2`, the inhibition is 10.5% (EGFP decrease, at 10 µM) and 22.6% (inactive) (at 20 µM).

Regarding `CC(C)[C@H](NC(=O)c1ccc(F)cc1)C(=O)NC1=NCCS1`, the inhibition (EGFP decrease, at 10 µM) was 21.6% and the inhibition (at 20 µM) was 2.2% (inactive).

As to `Cc1ccc(-n2ncc(Br)c(Br)c2=O)cc1`, the inhibition (EGFP decrease, at 10 µM) turned out to be 9.4% and the inhibition (at 20 µM) was -1.3% (inactive).

As for `CC(NC(=O)CN(C)CC(=O)Nc1ccc(F)c(F)c1F)c1ccccc1` (stereo not given), the inhibition is 8% (EGFP decrease, at 10 µM) and -8.6% (inactive) (at 20 µM).

With `CC1(C)OC(=O)C(=CNC(CCC(N)=O)C(=O)O)C(=O)O1` (stereo not given), the inhibition is, setting by setting: (EGFP decrease, at 10 µM) -1.3%; (at 20 µM) 15.1% (inactive).

As for `O=C(NCc1ccncc1)c1cc(C(=O)C2CCCCC2)c[nH]1`, the inhibition by setting is: (EGFP decrease, at 10 µM) -25%; (at 20 µM) 31.5%.

Turning to `Cc1cc(C)n(CC(O)COc2ccc(C(C)(C)C)cc2)n1` (stereo not given), the inhibition (EGFP decrease, at 10 µM) was -4.8% and the inhibition (at 20 µM) was 7.7% (inactive).

For `Cc1cccc(C)c1OCc1cc(C(=O)N2CCCC2c2nonc2C)no1` (stereo not given), the inhibition is, setting by setting: (EGFP decrease, at 10 µM) 17.2%; (at 20 µM) 11.5% (inactive).

As for `COC(=O)c1ccc(NC(=O)CCCCCn2nnc3ccccc3c2=O)cc1`, the inhibition was 5.4% (EGFP decrease, at 10 µM) and -4% (inactive) (at 20 µM).

Regarding `O=C(COC(=O)COc1ccccc1)NCc1ccccc1`, the inhibition (EGFP decrease, at 10 µM) was found to be 16.3% and the inhibition (at 20 µM) was 11.3% (inactive).

Consider `Nc1ccc(C(=O)N2N=C(c3ccccc3)CC2(O)C(F)(F)F)cc1` (stereo not given), for which the inhibition (EGFP decrease, at 10 µM) was 28.6% and the inhibition (at 20 µM) is 4.3% (inactive).

In the case of `CN(C)N=C1c2cc(S(=O)(=O)N(C)C)ccc2-c2ccc(S(=O)(=O)N(C)C)cc21`, the inhibition is 2.3% (EGFP decrease, at 10 µM) and 6.6% (inactive) (at 20 µM).

For the compound `Cc1nc2cc3ccccc3cc2c(=O)[nH]1`, the inhibition (EGFP decrease, at 10 µM) is 12.2% and the inhibition (at 20 µM) was 3.3% (inactive).

For `CC(=O)c1cccc(N2Cc3ccccc3C2=NC(=O)CCl)c1`, the inhibition reads like this: (EGFP decrease, at 10 µM) 13.9%; (at 20 µM) 7.4% (inactive).

For the compound `O=C(c1cc(-c2ccccc2)on1)N1CCN(C(=O)c2ccco2)CC1`, the inhibition is 18.5% (EGFP decrease, at 10 µM) and 4.9% (inactive) (at 20 µM).

Take `O=C(O)C(O)Cc1c[nH]c2ccccc12` (stereo not given): the inhibition is 23.8% (EGFP decrease, at 10 µM) and 19.1% (inactive) (at 20 µM).

Take `COc1ccc2c(C)cc3nncn3c2c1`: the inhibition is -2.7% (EGFP decrease, at 10 µM) and 14.7% (inactive) (at 20 µM).

With `COC(=O)COc1ccc(Oc2nc(SC)nc(N(C)C)n2)nn1`, the inhibition was 34.2% (EGFP decrease, at 10 µM) and 29.7% (inactive) (at 20 µM).

In the case of `O=C(c1ccc(F)cc1)C1CCN(C(=O)c2c(F)cccc2F)CC1`, the inhibition is, setting by setting: (EGFP decrease, at 10 µM) 12.9%; (at 20 µM) 13.5% (inactive).

With `CC(C)CCN1C(=O)c2ccc(C(=O)NCC3CCCO3)cc2C1=O` (stereo not given), the inhibition reads like this: (EGFP decrease, at 10 µM) 8.4%; (at 20 µM) 3.8% (inactive).

Regarding `Cc1cc(C)n(/N=C/c2ccccc2O)c(=O)c1`, the inhibition reads like this: (EGFP decrease, at 10 µM) 20.8%; (at 20 µM) 9.9% (inactive).

For `COCC(=O)N1CCCN(c2nc3c(C)cccc3cc2C#N)CC1`, the inhibition by setting is: (EGFP decrease, at 10 µM) 7.6%; (at 20 µM) -0.8% (inactive).

`COc1cccc(CN2CC(C(=O)N(C)Cc3nc(C)cs3)CCC2=O)c1` (stereo not given): the inhibition reads like this: (EGFP decrease, at 10 µM) -5.9%; (at 20 µM) 16.2% (inactive).

In the case of `COc1ccccc1N1CCN(C(=O)C(CC(C)C)NC(=O)C2CCCCC2)CC1` (stereo not given), the inhibition reads like this: (EGFP decrease, at 10 µM) -31.4%; (at 20 µM) 6% (inactive).

Turning to `Cc1ccc(NC(=O)C(NS(=O)(=O)c2cccc3nsnc23)C(C)C)nc1` (stereo not given), the inhibition is 34.6% (EGFP decrease, at 10 µM) and 21.7% (inactive) (at 20 µM).

On to `Cc1cc(C)cc(N2C(=O)N(c3ccccc3C)C3CS(=O)(=O)CC32)c1` (stereo not given), for which the inhibition reads like this: (EGFP decrease, at 10 µM) 9.1%; (at 20 µM) 28.7% (inactive).

Consider `COCCn1c(SCC(=O)Nc2cc(C)on2)nnc1C(C)C`, for which the inhibition was -1.7% (EGFP decrease, at 10 µM) and 0.9% (inactive) (at 20 µM).

Turning to `O=C(NCCSc1ccccn1)c1ccc(Cl)cc1Cl`, the inhibition (EGFP decrease, at 10 µM) was found to be 19.7% and the inhibition (at 20 µM) was 3.4% (inactive).

`O=CN1CCC(=O)N(Cc2ccccc2)c2ccccc21`: the inhibition is 33.4% (EGFP decrease, at 10 µM) and 23.1% (inactive) (at 20 µM).

`Cc1ccccc1-n1ncc2c1CC(C)(C)CC2NC(=O)CCN1CCCCC1=O` (stereo not given): the inhibition (EGFP decrease, at 10 µM) is -9.2% and the inhibition (at 20 µM) was 12.3% (inactive).

With `CCOC(=O)c1ccc(COC(=O)c2nonc2N)cc1`, the inhibition (EGFP decrease, at 10 µM) was 4.5% and the inhibition (at 20 µM) is 21.1% (inactive).

Regarding `Cc1ccccc1OC(C)C(=O)Nc1ccc(S(=O)(=O)Nc2nccs2)cc1` (stereo not given), the inhibition by setting is: (EGFP decrease, at 10 µM) -2.8%; (at 20 µM) -1.1% (inactive).

On to `Cc1cc(NC(=O)CSc2ccc3nnc(-c4cccs4)n3n2)no1`, for which the inhibition (EGFP decrease, at 10 µM) was 10.8% and the inhibition (at 20 µM) was 15.9% (inactive).

As to `NC(=O)c1nsc(C(=O)N(CC(=O)NC2CCCC2)c2ccc(F)c(Cl)c2)c1N`, the inhibition is -4.6% (EGFP decrease, at 10 µM) and 15.2% (inactive) (at 20 µM).

On to `CCOC(=O)c1c(C)n(C)c2cc(OCCN(CC)CC)ccc12`, for which the inhibition is -6% (EGFP decrease, at 10 µM) and 8.6% (inactive) (at 20 µM).

For the compound `CCOc1ccc(NC(=O)CSc2nc3ccccc3c(=O)n2CCNC(C)=O)cc1`, the inhibition is 13.6% (EGFP decrease, at 10 µM) and 15% (inactive) (at 20 µM).

Turning to `Nc1cc(=O)[nH]c(SCC(=O)Nc2cccnc2Cl)n1`, the inhibition is, setting by setting: (EGFP decrease, at 10 µM) 18.4%; (at 20 µM) -7.6% (inactive).

Turning to `NC(=O)c1cccn(Cc2ccc(C(F)(F)F)cc2)c1=O`, the inhibition reads like this: (EGFP decrease, at 10 µM) 6.5%; (at 20 µM) 5.4% (inactive).

With `CCOC(=O)c1oc2ccccc2c1N`, the inhibition (EGFP decrease, at 10 µM) stood at 12.3% and the inhibition (at 20 µM) was 19.4% (inactive).

Regarding `COc1ccc(/C=C/C2=NN(Cc3ccccc3)C(=O)CC2)cc1`, the inhibition by setting is: (EGFP decrease, at 10 µM) 28.1%; (at 20 µM) 18.7% (inactive).

In the case of `CNc1cc(C(F)(F)F)nc(-c2ccccn2)n1`, the inhibition (EGFP decrease, at 10 µM) was -1.6% and the inhibition (at 20 µM) was 22.4% (inactive).

For `O=C(O)C1=C[C@H](c2cccs2)C[C@H](OCc2ccc(CO)cc2)O1`, the inhibition by setting is: (EGFP decrease, at 10 µM) 3.6%; (at 20 µM) -7.3% (inactive).

Consider `CCN(Cc1ccccc1)C(=O)C(=O)c1cn(CC(=O)N2CCCC2)c2ccccc12`, for which the inhibition was 19.4% (EGFP decrease, at 10 µM) and 28.2% (inactive) (at 20 µM).

For `CC(=O)Nc1cc2c(cc1C(=O)c1ccc(C)cc1)OCCO2`, the inhibition is 16% (EGFP decrease, at 10 µM) and -7.7% (inactive) (at 20 µM).

For the compound `CCC1=C(OC(=O)N(CC)CC)N2C(=O)OC(=NCC3CC3)[C@]2(C)[C@H]2C1=CC[C@H]1C(=O)N(CC)C(=O)[C@H]12`, the inhibition (EGFP decrease, at 10 µM) was -7.5% and the inhibition (at 20 µM) was -27.5% (inactive).

As for `COc1ccc(Cl)c(NC(=O)Nc2c(C)n(-c3ccccc3)c(=O)n2C)c1`, the inhibition (EGFP decrease, at 10 µM) is 8.4% and the inhibition (at 20 µM) was 26.9% (inactive).

For the compound `O=C(OCC(=O)N1CCC(Cc2ccccc2)CC1)c1ccccc1`, the inhibition reads like this: (EGFP decrease, at 10 µM) -1.5%; (at 20 µM) -16% (inactive).

Turning to `COc1ccccc1CN1CC(C(=O)NCc2cc(F)cc(C(F)(F)F)c2)CCC1=O` (stereo not given), the inhibition is, setting by setting: (EGFP decrease, at 10 µM) 4.7%; (at 20 µM) 12.5% (inactive).

For the compound `Cc1ccc(SCC(=O)N(C)C2CCS(=O)(=O)C2)cc1` (stereo not given), the inhibition runs as follows: (EGFP decrease, at 10 µM) 17.7%; (at 20 µM) 28.3% (inactive).

`COc1cc2c(cc1OC)/C(=C/C#N)NC(C)(C)C2`: the inhibition (EGFP decrease, at 10 µM) was determined as 6.8% and the inhibition (at 20 µM) is 8% (inactive).
